PMC9785194, “New Dibenzo-α-pyrone Derivatives with α-Glucosidase Inhibitory Activities from the Marine-Derived Fungus Alternaria alternata” (Marine Drugs, 2022)

Tests used:
[1] = DPPH antioxidant scavenging assay; conditions: 37 °C, 30 min, absorbance 517 nm
Protocol: The DPPH antioxidant scavenging assay was performed according to the previously reported method. Briefly, 50 µL of DPPH (0.34 mmol/L in EtOH) and 50 µL of a series of solutions (12.5, 25, 50, 100, and 200 μM) of the test compounds 1−10 were mixed in the wells of 96-well plates. Each mixture was incubated at 37 °C for 30 min in a dark environment. The absorbance was read at 517 nm using a microplate reader, employing distilled water as a blank for baseline correction. All experiments were performed in triplicate, and ascorbic acid was used as a positive control.

α-glucosidase [2] = experiment: α-glucosidase inhibition assay (p-NPG substrate); type: biochemical, Saccharomyces cerevisiae; conditions: for IC50: 0.5 U/mL enzyme, p-NPG substrate, 37 °C; for α-glucosidase inhibition rate: at a concentration of 400 µM
Protocol: (§1) Optical rotations were measured with an Anton Paar MCP 200 Automatic Polarimeter (Anton Paar, Graz, Austria). The UV data were recorded on a Thermo Genesys-10S UV/Vis spectrophotometer (Thermo Fisher Scientific, Waltham, MA, USA). ECD spectra were recorded with a JASCO J-815 spectropolarimeter (JASCO, Tsukuba, Japan) by using CH3OH as the solvent. Infrared spectra were obtained on a Nicolet IS5 FT-IR spectrophotometer (Thermo Fisher Scientific, Waltham, MA, USA). ^1H and ^13C NMR spectroscopic data were acquired with a Bruker Avance-500 spectrometer (Bruker, Bremen, Germany) using the solvent signals as a reference (CD3OD: δH 3.31/δC 49.00). HRESIMS data were obtained using an Agilent Accurate-Mass-Q-TOF LC/MS 6520 instrument (Agilent Technologies, Santa Clara, CA, USA) equipped with an electrospray ionization (ESI) source. Semi-preparative HPLC separation was performed on an Agilent 1260 instrument equipped with a variable-wavelength UV detector (Agilent Technologies Inc., CA, USA) using a YMC-pack ODS-A (10 × 250 mm, 5 μm, 2 mL/min, YMC CO., LTD., Kyoto, Japan).
The α-glucosidase inhibitory activity assay was measured as described in previous reports. Briefly, 50 μL of 0.5 U/mL α-glucosidase and 25 μL of a series of solutions (0.1, 0.2, 0.4, 0.8 and 1.6 mM) of the test compounds 1−10 were added into 96-well plates. After incubation at 37 °C for 10 min, 25 μL of 25 mM p-NPG was added and further incubated at 37 °C for 10 min.

α-glucosidase [3] = experiment: enzyme kinetics of α-glucosidase inhibition (Lineweaver-Burk and secondary plots); type: biochemical, Saccharomyces cerevisiae; conditions: for inhibition type against α-glucosidase: Lineweaver-Burk plots; for Ki: secondary plots, free enzyme, read-out: Ki (the inhibition constant of the free enzyme)
Protocol: as §1
The inhibition types of compounds 2 and 3 on α-glucosidase were determined by Lineweaver−Burk plots according to a previous report. The α-glucosidase inhibition kinetics were determined with selected concentrations of p-NPG (1.5625, 3.125, 6.25, 12.5 and 25 mM) under different concentrations of 2 and 3 (200, 400 and 800 μM) by keeping the enzyme concentration at 0.5 U/mL. The inhibition constant was determined by the second plots of the apparent Km/Vm or 1/Vm versus the concentration of the inhibitor.

Row | Structure (SMILES) | IC50 [1] [µM] | IC50 (α-glucosidase [2]) [µM] | α-glucosidase inhibition rate (α-glucosidase [2]) [%] | inhibition type against α-glucosidase (α-glucosidase [3]) | Ki (α-glucosidase [3]) [µM] | α-glucosidase inhibition rate (α-glucosidase [2]; 400 µM) [%]
1 | COc1cc(O)c2c(=O)oc3c(O)c(O)cc(C)c3c2c1 [Compound 6, 3′-hydroxyalternariol 5-O-methyl ether] | 83.9 ± 4.14 |  |  |  |  | 
2 | COc1cc(O)c2c(=O)oc3cc(O)cc(CO)c3c2c1 [Compound 7, alternariol 1′-hydroxy-9-methyl ether] | 23.6 ± 1.23 | 6.27 ± 0.68 | 93.70 |  |  | 
3 | CC12CC(O)C(O)C=C1c1cc(O)cc(O)c1C(=O)O2 (stereo not drawn) [Compound 3, Alternolide C] |  | 451 ± 6.95 |  | mixed-type inhibitors | 108 | 49.24
4 | O=C1O[C@H]([C@@H](O)CO)C(O)=C1O [ascorbic acid, reference compound] | 23.7 ± 1.03 |  |  |  |  | 
5 | COc1cc2oc(=O)c3c(O)cc(O)cc3c2cc1O [Compound 8, altenuisol] |  |  | 37.29 |  |  | 
6 | COc1cc(O)c2c(=O)oc3c(c2c1)[C@@H](C)CC3=O [Compound 9, 1-deoxyrubralactone] |  |  | 53.95 |  |  | 
7 | CC12CC(O)C(O)C=C1c1cc(O)cc(O)c1C(=O)O2 (stereo not drawn) [Compound 2, Alternolide B] |  | 725.9 ± 4.75 |  | mixed-type inhibitors | 347 | 36.62
